Measured values published in patent US9642854B2, “Flavanoid compounds and process for preparation thereof” (Council of Scientific & Industrial Research, priority 2009, dated 2017).
≈ marks a conversion by molar mass, not a printed value. Like-named read-outs stand apart in the source and are kept apart here.

Tests used:
H. pylori [1] = experiment: Anti H. pylori spectrum (MIC) by agar dilution method; assay type: cell-based, Helicobacter pylori; conditions: for MIC / MIC50: Helicobacter pylori; for MIC50: MIC against 50% of the strains of the panel, read-out: MIC50
Experimental: MIC was determined using agar dilution assay following the CLSI® guidelines. Six clinical isolates and four standard strains were used for this study. Five microlitre of freshly grown 3-day old culture (˜1×10^8 CFU/mL) was streaked in plates containing 2-fold serial dilution of the compounds ranging […], and incubated under microaerophilic condition at 37° C. After 72 h, the plates were inspected visually for absence of growth to assess the MIC values. The experiment was performed in duplicates. MIC50 is defined as the dose (μg/ml) required for killing 50% of the strains.
Plates contained two-fold serial dilutions of the compounds ranging from […]. Five microlitres of 3-day old freshly grown H. pylori culture (^˜10^8 CFU/mL) was inoculated onto drug-containing BHI agar plates supplemented with 7% FCS, 0.5% IsoVitalex and 0.0025% DENT®, which were then incubated for 3 days under microaerophilic condition at 37° C.

H. pylori [2] = experiment: Anti H. pylori screening by disc diffusion susceptibility assay; assay type: cell-based, Helicobacter pylori; conditions: for Inhibition zone diameter (score): 100 and 200 mg/disc (so in the source); for Inhibition zone diameter (score) / zone of inhibition at 100 µg/disc: 72 h; for zone of inhibition at 100 µg/disc: Helicobacter pylori, 100 and 200 μg/disc, majority of the strains, read-out: Activity class by inhibition zone diameter
Experimental: The discs were impregnated with […] of each of the compounds, dissolved either in ethanol or DMSO, and the zone of inhibition was measured after 72 h of growth under microaerophilic conditions at 37° C. Inhibition zone diameter ranging 10-20 mm was given a score of ^+, 20-30 mm as ^++ and that of >30 mm as ^+++, as obtained employing dose range of […]/disc. The detailed structural information of the molecules is provided under ‘Description of the Compounds’.
Methods and protocols for the determination of inhibition zone diameter are as stated under Experiment 1, and that of MIC values by microbroth dilution assay as in Experiment 3. ‘Nil’ means zone of inhibition below 10 mm.
The anti H. pylori activity of all 16 flavonoid molecules, 2 naturally isolated and 14 synthetic derivatives, was screened by disc diffusion sensitivity assay employing 2 clinical strains HP001 and HP002, and three standard strains ATCC® 700392, 43504 and 49503. A 0.5 mL inoculum (10^8 CFU/mL) for each bacterial strain tested was flooded on freshly prepared Brain Heart Infusion (BHI) agar plates supplemented with 7% FCS, 0.5% IsoVitalex and 0.0025% DENT® and the discs (5 mm diameter) containing different compounds or antibiotics (dissolved either in ethanol or DMSO) were placed on the agar surface. After incubation for 3 days in a microaerophilic atmosphere at 37° C., the diameter of the zone of inhibition was measured (Glupczynsky, 1996; McNulty et al., 2002).

[3] = 72 h, panel of 6 clinical isolates and 4 standard strains, read-out: MIC Range
[4] = clinical strain HP001, read-out: MIC
[5] = clinical strain HP002, read-out: MIC
[6] = clinical strain HP003, read-out: MIC
[7] = clinical strain HP004, read-out: MIC
[8] = clinical strain HP005, read-out: MIC
[9] = clinical strain HP006, read-out: MIC
[10] = standard strain 43504, read-out: MIC
[11] = standard strain 43629, read-out: MIC
[12] = standard strain 49503, read-out: MIC
[13] = standard strain 700392, read-out: MIC
[14] = panel of 6 clinical isolates and 4 standard strains

SMILES	MIC (H. pylori [1]; [3]) [µg/mL]	MIC50 (H. pylori [1]) [µg/mL]	MIC (H. pylori [1]; [4]) [µg/mL]	MIC (H. pylori [1]; [5]) [µg/mL]	MIC (H. pylori [1]; [6]) [µg/mL]	MIC (H. pylori [1]; [7]) [µg/mL]	MIC (H. pylori [1]; [8]) [µg/mL]	MIC (H. pylori [1]; [9]) [µg/mL]	MIC (H. pylori [1]; [10]) [µg/mL]	MIC (H. pylori [1]; [11]) [µg/mL]	MIC (H. pylori [1]; [12]) [µg/mL]	MIC (H. pylori [1]; [13]) [µg/mL]	MIC50 (H. pylori [1]; 72 h) [µg/mL]	Inhibition zone diameter (score) (H. pylori [2]; ATCC standard strain 43504)	Inhibition zone diameter (score) (H. pylori [2]; ATCC standard strain 49503)	Inhibition zone diameter (score) (H. pylori [2]; ATCC standard strain 700392)	Inhibition zone diameter (score) (H. pylori [2]; clinical strain HP001)	Inhibition zone diameter (score) (H. pylori [2]; clinical strain HP002)	zone of inhibition at 100 µg/disc (H. pylori [2]) [mm]	further results
CC1(C)S[C@@H]2[C@H](NC(=O)[C@H](N)c3ccc(O)cc3)C(=O)N2[C@H]1C(=O)O [Amoxicillin, reference compound]	0.016 to 0.0625 (≈ 0.0438 to 0.171 µM)	0.032 (≈ 0.0876 µM)	0.032 (≈ 0.0876 µM)	0.032 (≈ 0.0876 µM)	0.016 (≈ 0.0438 µM)	0.016 (≈ 0.0438 µM)	0.016 (≈ 0.0438 µM)	0.016 (≈ 0.0438 µM)	0.0625 (≈ 0.171 µM)	0.032 (≈ 0.0876 µM)	0.032 (≈ 0.0876 µM)	0.0625 (≈ 0.171 µM)	–	–	–	–	–	–	–	inhibition zone diameter (H. pylori [2]; clinical strains, 0.16 mg/disc): 10-16 mm; inhibition zone diameter (H. pylori [2]; standard strains, 0.5-1.0 mg/disc): 13-15 mm
O=c1cc(-c2ccccc2)oc2cc(OCCCCCCN3CCOCC3)cc(O)c12 [CHM-1, 5-Hydroxy-7-(6-morpholin-4-yl-hexyloxy)-2-phenyl-chromen-4-one]	6.25 to 25 (≈ 14.8 to 59 µM)	25 (≈ 59 µM)	25 (≈ 59 µM)	25 (≈ 59 µM)	< 12.5	< 12.5	< 12.5	< 12.5	25 (≈ 59 µM)	25 (≈ 59 µM)	25 (≈ 59 µM)	25 (≈ 59 µM)	~25 (≈ 59 µM)	Nil (‘Nil’ means zone of inhibition below 10 mm)	+ (Inhibition zone diameter ranging 10-20 mm was given a score of ^+)	+ (Inhibition zone diameter ranging 10-20 mm was given a score of ^+)	+ (Inhibition zone diameter ranging 10-20 mm was given a score of ^+)	+ (Inhibition zone diameter ranging 10-20 mm was given a score of ^+)	–	–
O=c1cc(-c2ccccc2)oc2cc(OCCCCN3CCOCC3)cc(O)c12 [CHM-3, 5-Hydroxy-7-(4-morpholin-4-yl-butoxy)-2-phenyl-chromen-4-one]	50 to 100 (≈ 126 to 253 µM)	50 (≈ 126 µM)	50 (≈ 126 µM)	50 (≈ 126 µM)	100 (≈ 253 µM)	100 (≈ 253 µM)	100 (≈ 253 µM)	100 (≈ 253 µM)	50 (≈ 126 µM)	100 (≈ 253 µM)	50 (≈ 126 µM)	50 (≈ 126 µM)	50 (≈ 126 µM)	+ (Inhibition zone diameter ranging 10-20 mm was given a score of ^+)	++ (20-30 mm as ^++)	+ (Inhibition zone diameter ranging 10-20 mm was given a score of ^+)	++ (20-30 mm as ^++)	++ (20-30 mm as ^++)	20 to 30	MIC Range (H. pylori [1]; [14]): 50 to 100 µg/mL
CN(C)CCCOc1cc(O)c2c(=O)cc(-c3ccccc3)oc2c1 [CHN-2, 7-(3-Dimethylamino-propoxy)-5-hydroxy-2-phenyl-chromen-4-one]	6.25 to 25 (≈ 18.4 to 73.7 µM)	25 (≈ 73.7 µM)	25 (≈ 73.7 µM)	25 (≈ 73.7 µM)	12.5 (≈ 36.8 µM)	12.5 (≈ 36.8 µM)	25 (≈ 73.7 µM)	25 (≈ 73.7 µM)	50 (≈ 147 µM)	12.5 (≈ 36.8 µM)	25 (≈ 73.7 µM)	50 (≈ 147 µM)	~25 (≈ 73.7 µM)	++ (20-30 mm as ^++)	++ (20-30 mm as ^++)	+ (Inhibition zone diameter ranging 10-20 mm was given a score of ^+)	++ (20-30 mm as ^++)	++ (20-30 mm as ^++)	20 to 30	MIC Range (H. pylori [1]; [14]): 12.5 to 50 µg/mL
CN(C)CCCCOc1cc(O)c2c(=O)cc(-c3ccccc3)oc2c1 [CHN-3, 7-(4-Dimethylamino-butoxy)-5-hydroxy-2-phenyl-chromen-4-one]	6.25 to 25 (≈ 17.7 to 70.7 µM)	25 (≈ 70.7 µM)	25 (≈ 70.7 µM)	25 (≈ 70.7 µM)	< 12.5	< 12.5	< 12.5	< 12.5	25 (≈ 70.7 µM)	25 (≈ 70.7 µM)	25 (≈ 70.7 µM)	25 (≈ 70.7 µM)	~25 (≈ 70.7 µM)	+ (Inhibition zone diameter ranging 10-20 mm was given a score of ^+)	++ (20-30 mm as ^++)	+ (Inhibition zone diameter ranging 10-20 mm was given a score of ^+)	++ (20-30 mm as ^++)	++ (20-30 mm as ^++)	20 to 30	–
O=c1cc(-c2ccccc2)oc2cc(OCCCN3CCCCC3)cc(O)c12 [CPP-2, 5-Hydroxy-2-phenyl-7-(3-piperidin-1-yl-propoxy)-chromen-4-one]	6.25 to 100 (≈ 16.5 to 264 µM)	12.5 (≈ 32.9 µM)	25 (≈ 65.9 µM)	25 (≈ 65.9 µM)	< 12.5	< 12.5	< 12.5	< 12.5	12.5 (≈ 32.9 µM)	100 (≈ 264 µM)	25 (≈ 65.9 µM)	25 (≈ 65.9 µM)	~12.5 (≈ 32.9 µM)	+ (Inhibition zone diameter ranging 10-20 mm was given a score of ^+)	+ (Inhibition zone diameter ranging 10-20 mm was given a score of ^+)	+ (Inhibition zone diameter ranging 10-20 mm was given a score of ^+)	+ (Inhibition zone diameter ranging 10-20 mm was given a score of ^+)	+ (Inhibition zone diameter ranging 10-20 mm was given a score of ^+)	–	–
Cc1ncc([N+](=O)[O-])n1CCO [Metronidazole, reference compound]	–	50 (≈ 292 µM)	–	> 100	100 (≈ 584 µM)	100 (≈ 584 µM)	25 (≈ 146 µM)	25 (≈ 146 µM)	50 (≈ 292 µM)	1.56 (≈ 9.11 µM)	1.56 (≈ 9.11 µM)	1.56 (≈ 9.11 µM)	–	–	–	–	–	–	–	–
CN1CCN(CCCCOc2cc(O)c3c(=O)cc(-c4ccccc4)oc3c2)CC1 [NMC-3, 5-Hydroxy-7-[4-(4-methyl-piperazin-1-yl)-butoxy]-2-phenyl-chromen-4-one]	6.25 to 25 (≈ 15.3 to 61.2 µM)	25 (≈ 61.2 µM)	25 (≈ 61.2 µM)	25 (≈ 61.2 µM)	< 12.5	< 12.5	< 12.5	< 12.5	25 (≈ 61.2 µM)	25 (≈ 61.2 µM)	25 (≈ 61.2 µM)	25 (≈ 61.2 µM)	~25 (≈ 61.2 µM)	+ (Inhibition zone diameter ranging 10-20 mm was given a score of ^+)	+ (Inhibition zone diameter ranging 10-20 mm was given a score of ^+)	+ (Inhibition zone diameter ranging 10-20 mm was given a score of ^+)	+ (Inhibition zone diameter ranging 10-20 mm was given a score of ^+)	++ (20-30 mm as ^++)	–	–
